Measurements taken from patent publication US4533498A, “Compounds” (Beecham Group p.l.c., priority 1983, dated 1985).

Experiments:
dopamine receptor = assay: Dopamine receptor blocking activity in the central nervous system: inhibition of apomorphine induced climbing in the mouse; assay type: in vivo; conditions: apomorphine 1 mg/kg s.c.; for ED50 (inhibition of apomorphine induced climbing): scored at 10, 20 and 30 minutes; for inhibition of apomorphine induced climbing, result in words: printed beside ED50 10 mg/kg s.c.
Experimental: Compounds were tested for inhibition of apomorphine induced climbing in the mouse. The test is based on that described by Protais, P., Constantin, J. and Schwartz, J. C. (1976), Psychopharmacology, 50, 1-6.
Apomorphine 1 mg/kg s.c. induces mice to climb the wall of a wire cage (inverted food hopper--11×7.5×18 cm high). Mice acclimatised in their home cages in groups of 5 are placed under the hoppers immediately after the injection of apomorphine 1 mg/kg s.c. At 10, 20 and 30 minutes after injection climbing behaviour is scored. The mice are observed for 30 seconds and scored according to the position they spend the majority of time in, score 0--four paws on floor of cage; score 1--fore paws only on walls; score 2--all paws on wall of cage. The scores at all 3 times and for each mouse are summed and mice drug treated compared to mice receiving apomorphine only. A saline only treated group is also included and any score, generally >5% of maximum taken into account.

intragastric pressure = assay: Increase in intragastric pressure (conscious restrained rats, gastric fistula); assay type: in vivo, rat; conditions: 40 minute period after administration, Student's t test vs spontaneous activity
Experimental: Intragastric pressure changes were recorded from previously starved conscious but restrained rats using a saline filled catheter inserted into the lumen of the stomach via a permanent gastric fistula. The catheter was connected to a physiological pressure transducer and pressure changes recorded on a hot wire pen recorder. In each animal a pre-dose period of 40 minutes was allowed to obtain a measure of spontaneous activity. An index of activity was obtained by measuring the average height of pressure waves during 10 minute periods. Values for 4 such periods were obtained during assessment of spontaneous activity and for a 40 minute period after administration of compound. Student's `t` test was applied to the difference in average values obtained for spontaneous and post compound activity.

vomiting response = assay: Anti-emetic activity in the dog: inhibition of apomorphine-induced vomiting response; assay type: in vivo; conditions: s.c. 30 minutes prior to apomorphine HCl 0.1 mg/kg s.c.; for ED50: Canis lupus familiaris, sc
Experimental: Compounds were administered subcutaneously 30 minutes prior to administration of a standard dose of apormorphine HCl (0.1 mg/kg subcutaneously) and the vomiting response compared to that obtained when the same animals were dosed with apomorphine HCl and vehicle only. The ED50 value for inhibition of the vomiting response determined for compounds (17), (29) and (30) was 0.1 mg/kg, and for compound (19) 0.01 mg/kg s.c.

COc1cc(N)c(Cl)cc1C(=O)NC1CC2CCC1CN2C (racemic) [Compound 17, (±)-4-Amino-5-chloro-2-methoxy-N-(5-[2-methyl-2-azabicyclo[2,2,2]octyl]benzamide]
ED50 (inhibition of apomorphine induced climbing) (dopamine receptor): 7.7 mg/kg s.c.
index of activity (average height of pressure waves) post administration (intragastric pressure; 0.5 mg/kg s.c.): significantly increased the index of activity
ED50 (vomiting response): 0.1 mg/kg

COc1cc(N)c(Cl)cc1C(=O)NC1CC2CCC1CN2C (racemic) [Compound 18, (±) 4-Amino-5-chloro-2-methoxy-N-(5-[2-methyl-2-azabicyclo[2,2,2]octyl]benzamide]
inhibition of apomorphine induced climbing, result in words (dopamine receptor): inactive
ED50 (inhibition of apomorphine induced climbing) (dopamine receptor): 10 mg/kg s.c.
index of activity (average height of pressure waves) post administration (intragastric pressure; 0.5 mg/kg s.c.): significantly increased the index of activity

COc1cc(N)c(Cl)cc1C(=O)NC1CC2CCC1CN2Cc1ccccc1 (racemic) [Compound 19, (±)-4-Amino-5-chloro-2-methoxy-N-(5-[2-benzyl-2-azabicyclo[2,2,2]octyl]benzamide]
ED50 (inhibition of apomorphine induced climbing) (dopamine receptor): 0.36 mg/kg s.c.
index of activity (average height of pressure waves) post administration (intragastric pressure; 1.0 mg/kg s.c.): similarly active
ED50 (vomiting response): 0.01 mg/kg

COc1cc(N)c(Cl)cc1C(=O)NC1CC2CCC1CN2Cc1ccccc1 (racemic) [Compound 20, (±) 4-Amino-5-chloro-2-methoxy-N-(5-[2-benzyl-2-azabicyclo[2,2,2]octyl])benzamide]
ED50 (inhibition of apomorphine induced climbing) (dopamine receptor): 3.6 mg/kg s.c.
index of activity (average height of pressure waves) post administration (intragastric pressure; 0.5 mg/kg s.c.): significantly increased the index of activity

COc1cc(N)c(Cl)cc1C(=O)NC1CC2CC1CN2C (racemic) [Compound 26, (±) 4-amino-5-chloro-2-methoxy-N-[5-(2-methyl-2-azabicyclo(2.2.1)heptyl)]benzamide]
inhibition of apomorphine induced climbing, result in words (dopamine receptor): inactive
ED50 (inhibition of apomorphine induced climbing) (dopamine receptor): 10 mg/kg s.c.
index of activity (average height of pressure waves) post administration (intragastric pressure; 0.5 mg/kg s.c.): significantly increased the index of activity

COc1cc(N)c(S(C)(=O)=O)cc1C(=O)NC1CC2CCC1CN2Cc1ccccc1 (stereo not shown) [Compound 29, 4-amino-2-methoxy-5-methylsulphonyl-N-[5-(2-benzyl-2-azabicyclo(2.2.2)octyl)]benzamide]
ED50 (vomiting response): 0.1 mg/kg

COc1cc(N)c(S(C)(=O)=O)cc1C(=O)NC1CC2CCC1CN2Cc1ccccc1 (stereo not shown) [Compound 30, 4-amino-2-methoxy-5-methylsulphonyl-N-[5-(2-benzyl-2-azabicyclo(2.2.2)octyl)]benzamide]
ED50 value for inhibition of the vomiting response (vomiting response): 0.1 mg/kg
